Test results reported in publication PMC4364612.
Like-named read-outs stand apart in the source and are kept apart here. Ends that are not written are not given here. Peptide text beside a SMILES is read from it. * marks the point of attachment. Cbz = O=C(OCc1ccccc1)*

Columns and labels:
[1] = Intracellular stability of optimal epitopes, DC and Mø extracts; format: in vitro ADME, Human; conditions: 37°C
Description: One nmol of highly purified peptide was degraded in 15μg of whole cell extracts at 37°C in degradation buffer at pH7.4 or pH4.0 [37]. Aliquots were taken at 0, 10, 30, and 60 minutes, and the reaction was stopped with 2.5μL of 100% TFA. The remaining peptide at each time point was quantified by reversed-phase HPLC (RP-HPLC; Waters). 100% represents the amount of peptide detected at time point 0 calculated as the area under the peptide peak. A stability rate of each peptide was calculated by a nonlinear regression (one-phase exponential decay) of the degradation profile obtained over a 60-minute incubation [35, 44]. Peptides incubated in buffer without cell extracts were used as controls.

[2] = Intracellular stability of optimal epitopes, immature DC extracts; format: in vitro ADME, Human; conditions: RP-HPLC; for stability rate at pH4.0 relative to pH7.4: immature DC extract, pH4.0, 37°C, 60-minute incubation, three independent experiments; for half-life: human, cells or culture medium, 1nmol peptide, 15μg immature DC whole cell extract, aliquots 0, 10, 30, 60 minutes, one-phase exponential decay
Description: The proteolytic activities of cathepsin S (cell, 50μM; extracts, 10μM Z-VVR-AMC), omni cathepsins (cell, 50μM; extracts, 50μM Z-FR-AMC), cathepsin D&E (extracts, 10μM Mca-[…]-Dnp, Enzo Life Sciences), and cathepsin B (extracts, 50μM Z-RR-AMC, Bachem) were measured by cleavage of peptide-specific fluorogenic substrates. […] For cell extracts, equivalent amounts as determined by total protein concentration were used in reaction buffer (50mM sodium chloride, 50mM potassium phosphate, 2mM DTT, 2mM EDTA; pH 7.4, pH5.5 or pH4.0, respectively). The rate of fluorescence emission, which is proportional to the proteolytic activity, was measured every 5 minutes at 37°C in a Victor-3 Plate Reader (Perkin Elmer).
One nmol of highly purified peptide was degraded in 15μg of whole cell extracts at 37°C in degradation buffer at pH7.4 or pH4.0 [37]. Aliquots were taken at 0, 10, 30, and 60 minutes, and the reaction was stopped with 2.5μL of 100% TFA. The remaining peptide at each time point was quantified by reversed-phase HPLC (RP-HPLC; Waters). 100% represents the amount of peptide detected at time point 0 calculated as the area under the peptide peak. A stability rate of each peptide was calculated by a nonlinear regression (one-phase exponential decay) of the degradation profile obtained over a 60-minute incubation. Peptides incubated in buffer without cell extracts were used as controls.

[3] = system: immature Møs presenting to epitope-specific CTL clones; assay: ELISPOT cross-presentation assay with immature Møs; format: cell-based, Human; conditions: IFN-gamma ELISPOT, n≥5 donors; for change of B57-ISW9 cross-presentation upon inhibitor pretreatment: immature Møs pre-incubated 45 minutes with 10μM MG132 or 5μM E64 before p24 protein; for change of B57-KF11 CTL responses upon inhibitor pretreatment, decrease / change of B57-TW10 CTL responses upon inhibitor pretreatment, decrease: immature Møs pre-incubated with 10μM MG132, epoxomicin or 5μM E64 before p24 protein
Description: (§1) Human peripheral blood mononuclear cells (PBMCs) were isolated by Ficoll-Hypaque (Sigma-Aldrich) density centrifugation. Monocytes were enriched using CD14+ magnetic isolation kits (StemCell) and differentiated into DCs and Møs during a 6-day culture. DCs were cultured in AIM-V media with 1% human serum AB (Gemini Bio-Products) supplemented with 20ng/mL IL-4 and 10ng/mL GM-CSF (CellGenix). On days 2 and 4, fresh IL-4 and GM-CSF were added. Møs were cultured in ultra low attachment plates (Corning) in AIM-V media with 10% human serum AB. Where indicated, maturation of DCs and Møs was induced by TLR ligand stimulation with 2μg/mL LPS, 1μg/mL CL097, or 1μg/mL R848 (Invivogen) for 2 days. Epitope-specific CTL clones were maintained in the presence of 50U/mL IL-2, using 0.1μg/mL CD3-specific mAb 12F6, and irradiated feeder cells as stimulus for T cell proliferation.
(§2) Immature DCs and Møs were exposed to recombinant HIV-1 p24-protein, HIV-1 p55-protein or control protein (Protein Sciences Corporation, USA) for 1hr at 37°C. Where indicated, cells were pre-incubated for 45 minutes with inhibitors for proteasome (10μM MG132 (Enzo Life Sciences)) or cysteine proteases (5μM E64 (Sigma-Aldrich)). Cells pulsed with equivalent molar concentrations of the optimal epitopes were used as controls for antigen presentation and CTL clone specificity. DCs and Møs were thoroughly washed and cultured overnight with epitope-specific CTL clones at a 2:1 effector-to-target ratio in 96-well plates (Millipore) coated with anti-IFN-y mAb 1-D1K (Mabtech). ELISPOT plates were washed and developed as described previously.

[4] = system: immature DCs presenting to epitope-specific CTL clones; assay: ELISPOT cross-presentation assay with immature DCs; format: cell-based, Human; conditions: IFN-gamma ELISPOT, n≥5 donors; for change of B57-KF11 cross-presentation (CTL response) upon inhibitor pretreatment, increase: immature DCs pre-incubated 45 minutes with 10μM MG132, 5μM E64 or epoxomicin before p24 protein; for change of B57-ISW9 cross-presentation (CTL response) upon inhibitor pretreatment, increase: immature DCs pre-incubated 45 minutes with 10μM MG132 or 5μM E64 before p24 protein
Description: as §1, §2

[5] = In vitro peptide degradation assay with mass spectrometry, immature DC extracts; format: in vitro ADME, Human; conditions: immature DC whole cell extracts, 120 minutes, pH7.4, pH5.5 and pH4.0, 37°C; LC-MS cleavage patterns; representative of two experiments

Row | Compound | stability rate at pH4.0 relative to pH7.4 [2] | change of B57-KF11 CTL responses upon inhibitor pretreatment, decrease [3] | change of B57-TW10 CTL responses upon inhibitor pretreatment, decrease [3] | change of B57-KF11 cross-presentation (CTL response) upon inhibitor pretreatment, increase [4] | also measured
1 | CC[C@H](C)[C@H](NC(=O)[C@H](CCC(N)=O)NC(=O)[C@H](CCC(=O)O)NC(=O)[C@H](CCC(N)=O)NC(=O)[C@H](CC(C)C)NC(=O)[C@H](CC(N)=O)NC(=O)[C@H](CO)NC(=O)[C@@H](N)[C@@H](C)O)C(=O)N[C@@H](C)C(=O)N[C@@H](Cc1c[nH]c2ccccc12)C(=O)O |  |  |  |  | cytosolic and lysosomal stability relative to B57-TW10, fold reduced ([1]; 1nmol peptide, 15μg immature DC or Mø extracts, pH7.4 and pH4.0 (both compartments), RP-HPLC stability rate, mean of three independent experiments): 7- to 8 fold
2 | CC[C@H](C)[C@H](NC(=O)[C@H](C)N)C(=O)N[C@@H](Cc1ccccc1)C(=O)N[C@@H](CCC(N)=O)C(=O)N[C@@H](CO)C(=O)N[C@@H](CO)C(=O)N[C@@H](CCSC)C(=O)N[C@H](C(=O)N[C@@H](CCCCN)C(=O)O)[C@@H](C)O [A11-ATK9] | dramatically reduced |  |  |  | 
3 | CC[C@H](C)[C@H](NC(=O)[C@@H](NC(=O)[C@H](CCC(=O)O)NC(=O)[C@@H]1CCCN1C(=O)[C@H](CO)NC(=O)[C@H](Cc1ccccc1)NC(=O)[C@H](C)NC(=O)[C@@H](N)CCCCN)C(C)C)C(=O)N1CCC[C@H]1C(=O)N[C@@H](CCSC)C(=O)N[C@@H](Cc1ccccc1)C(=O)O [B57-KF11] | dramatically reduced |  |  |  | half-life ([2]; pH 4, degradation buffer pH4.0, 37°C, read-out: half-life at pH4.0): 1.9 min; half-life ([2]; pH 7.4, degradation buffer pH7.4, 37°C, read-out: half-life at pH7.4): 20 min; fold faster degraded at pH4.0 than at pH7.4 ([2]; immature DC whole cell extract, 37°C, ratio of half-lives): 10 fold
4 | CC(C)C[C@H](NC(=O)[C@H]1O[C@@H]1C(=O)O)C(=O)NCCCCN=C(N)N [E64] |  | did not affect | did not affect | no effect | change of B57-ISW9 cross-presentation upon inhibitor pretreatment [3]: did not affect; change of B57-ISW9 cross-presentation (CTL response) upon inhibitor pretreatment, increase [4]: no effect
5 | CC[C@H](C)[C@H](NC(=O)[C@H](CCCCN)NC(=O)[C@H](CCC(=O)O)NC(=O)[C@H](Cc1c[nH]c2ccccc12)NC(=O)[C@@H](N)CCCNC(=N)N)C(=O)N[C@@H](CCCNC(=N)N)C(=O)N[C@@H](CC(C)C)C(=O)N[C@@H](CCCNC(=N)N)C(=O)N1CCC[C@H]1C(=O)NCC(=O)NCC(=O)N[C@@H](CCCCN)C(=O)N[C@@H](CCCCN)C(=O)N[C@@H](CCCCN)C(=O)N[C@@H](Cc1ccc(O)cc1)C(=O)N[C@@H](CCCCN)C(=O)N[C@@H](CC(C)C)C(=O)O [HIV-1 p17-derived peptide] |  |  |  |  | degradation of A03-RK9 within the p17-derived peptide [5]: minimal degradation
6 | CC(C)C[C@@H](C=O)NC(=O)[C@H](CC(C)C)NC(=O)[C@H](CC(C)C)NC(=O)OCc1ccccc1 [MG132] (Cbz-Leu-Leu-Leu-aldehyde) |  | 2 fold | 3 fold | 4 fold | change of B57-ISW9 cross-presentation upon inhibitor pretreatment [3]: not affected; change of B57-TW10-specific CTL responses upon inhibitor pretreatment, decrease ([4]; immature DCs pre-incubated 45 minutes with 10μM MG132 before p24 protein): approximately 3 fold; change of B57-ISW9 cross-presentation (CTL response) upon inhibitor pretreatment, increase [4]: 43 fold
7 | CC[C@H](C)[C@H](NC(=O)[C@H]([C@@H](C)CC)N(C)C(C)=O)C(=O)N[C@H](C(=O)N[C@@H](CC(C)C)C(=O)[C@@]1(C)CO1)[C@@H](C)O [epoxomicin] |  | 2 fold | 3 fold | 11 fold | 
8 | FSPEVIPMF [B57-FF9] | dramatically reduced |  |  |  | stability rate compared with overlapping epitope B57-KF11 ([1]; extracts of DCs and Møs, RP-HPLC, three independent experiments): comparable
9 | ISPRTLNAW [B57-ISW9] | dramatically reduced |  |  |  | 
